Results as given in patent US20180369195A1, “COMBINATION THERAPY FOR TREATMENT OF MELANOMA” (The Regents of the University of California, priority 2015, published 2018).
“Also recorded” adds a separate entry of the source.

Legend:
[1] = tested on: MITF-M; test: MITF-M protein levels in cultured melanoma cells (western blot, immunofluorescence); type: cell-based, human
Experimental: Western Blot analyses of samples electrophoretically fractionated on 12% acrylamide gels were carried out as previously described (Wagle et al., J. Clin. Oncol. 2011. 29(22):3085-3096; Nguyen et al., Chem. Biol. Interact. 2010. 186(3):255-266). Enhanced chemiluminescence (ECL) Lightening reagents were used to visualize the primary antibody bound protein bands in nitrocellulose membranes and the results captured on ECL Autoradiography Film (GE Healthcare, Piscataway, N.J.). The western blots employed the following primary antibodies: mouse anti-MITF-M (Thermo-scientific), mouse anti-HSP 90 (BD Biosciences), mouse anti-CDK2, rabbit anti-CDK4, rabbit anti-CDK-6, mouse anti-rabbit BRAF, goat anti-LEF-1, rabbit anti-AXIN, mouse anti-BCL2, (Santa Cruz), rabbit anti-P21, mouse anti-Cyclin D1, rabbit anti-MEK-p, rabbit anti-MEK1/2, rabbit anti-GSK3β rabbit anti-LRP6, rabbit anti-LRP6-phospho (Cell signaling), mouse anti-β-catenin (Invitrogen).

[2] = tested on: G-361 melanoma cells; test: CCK-8 proliferation assay, G-361; type: cell-based, human
Experimental: The same treatment regime was repeated on multiple melanoma cell lines with 20 μM 1-benzyl I3C and 200 μM I3C for 48 hours to compare the relative sensitivities of the different cell lines with distinct mutation profiles to 1-benzyl I3C and I3C. Cells were treated with 20 μM 1-benzyl I3C every 24 hours for 72 hours and harvested at 24, 48 and 72 hours for western blot and flow cytometric analysis. Cells were treated with 20 μM LiCl or 10 μM BIO for 48 hours before harvesting them for western blots.
To study the effect of I3C, cells were treated with or without 200 μM I3C every 24 hours for 72 hours and harvested at 24, 48 and 72 hours for western blot and flow cytometric analysis.
(§1) Subsequently inhibition of proliferation was assessed using Cell counting Kit-8 (Dojindo) as per the protocol in the user's manual. Briefly, 50 μl of the CCK-8 solution was added to each well along with 450 μl media and incubated for 2-3 hours. The absorbance was read at 450 nm and % inhibition was calculated for each condition standardizing DMSO to zero using the formula: [(100−Value of treatment/Value of DMSO treated control)×100]

[3] = tested on: SK-MEL-2 cells; test: CCK-8 proliferation assay, SK-MEL-2; type: cell-based, human; details: for antiproliferation in wild-type BRAF cells: 48 hours
Experimental: […] Cells were treated with 20 μM 1-benzyl I3C every 24 hours for 72 hours and harvested at 24, 48 and 72 hours for western blot and flow cytometric analysis. Cells were treated with 20 μM LiCl or 10 μM BIO for 48 hours before harvesting them for western blots.
as §1

[4] = tested on: G-361 cell-derived tumor xenografts; test: G-361 melanoma tumor xenograft growth in athymic nude mice; type: in vivo
Experimental: Approximately 1 million G361 melanoma cells in a total volume of 0.1 ml of Matrigel were injected subcutaneously into each lateral flank of NIH III athymic nude mice. The resulting tumors were allowed to grow to a mean starting volume of 146±10 mm^3. […] The resulting tumor volumes were measured every other day for four weeks using calipers. The tumor volumes were calculated using the standard formula: (Width×Length)/2, and changes in tumor volumes were calculated using the formula: 100+{(Tf−Ti)/Ti×100}, where Tf is the final mean tumor volume and Ti is the initial mean tumor volume. At terminal sacrifice, tumor xenografts were harvested, and a portion of each tumor was fixed in 4% para-formaldehyde for 1 hour at room temperature, followed by a phosphate-buffered saline (PBS) wash and subsequently immersed in […] overnight at 4° C. The resulting tissues were embedded in OCT and 10 μm thin sections were taken for immunofluorescence studies.

[5] = tested on: MITF-M promoter; test: MITF-M promoter luciferase reporter assay; type: cell-based, human; details: G361 cells, 24 hours
Experimental: G361 Melanoma cells were cultured to approximately 80% confluency in 6 well adherent culture plates in triplicates for each experimental condition for 24 hours. The cells were then transiently transfected with either a wild-type pGL2-pMITF-333/+120-luciferase reporter plasmid or a similar plasmid with the LEF-1/TCF binding site mutated at −199. pGL2-pMITF-333/+120-ΔLEF-1-luciferase, (ALEF-1) was generated using the following primers: LEF-1 forward, 5′-[…]-3′ (SEQ ID NO:5) and LEF-1 reverse, 5′-[…]-3′ (SEQ ID NO:6).
PCR conditions used were as follows: 30 s hotstart at 95° C., 30 s at 95° C., 1 min at 55° C., 8 min at 68° C. for 16 cycles. Mutagenesis was performed using QuickChange II kit (Aligent) per the manufacturer's instructions. PCR products were extracted and purified using QIAquick Gel Extraction Kit (Qiagen). Sequence was confirmed by automated DNA sequencing (University of California Berkeley Sequencing Facility). […] 20 μl of supernatant from each sample was combined with 100 μl luciferase substrate (Promega) and emitted fluorescence was measured using luminometer, Lumat LB 9507 (EG&G Berthold) and the relative light units (RLU) were recorded. The RLU/μg for each sample was calculated by dividing the data obtained with their specific protein concentration determined by a Bradford assay using 1× BioRad Protein Assay reagent and measuring O.D at 595 nm.

Row | Structure (SMILES) | MITF-M protein levels (western blot) ([1]; G361 and DM738 cells, 1-benzyl I3C, 24, 48, 72 hours) | MITF-M protein levels (western blot) ([1]; SK-MEL-2 cells (WT BRAF), 1-benzyl I3C, 24, 48, 72 hours) | fold lower concentration than I3C ([2]; 48 hours) | optimum concentration for antiproliferation ([2]; 48 hours) [µM] | fold lower concentration than I3C ([2]; 48 hours, listed as 1-Benzyl I3C) [fold] | antiproliferation compared with I3C ([2]; varying doses, 48 hours) | antiproliferation in wild-type BRAF cells [3] | tumor growth ([4]; 1-benzyl I3C 20 mg/kg body weight subcutaneously everyday, 4-week time course, vs vehicle) | size of the residual tumors at termination of treatment ([4]; 1-benzyl I3C 20 mg/kg, week 4) | MITF-M promoter activity (luciferase reporter, WT) ([5]; 20 μM 1-benzyl I3C) | MITF-M protein levels (western blot) ([1]; G-361 and DM738 cells, varying concentrations of I3C, 48 hours) | MITF-M protein levels (western blot) ([1]; G-361 cells, 48 hours, 200 μM I3C, 10 μM Vemurafenib or 10 μM U0126) | MITF-M protein levels (western blot) ([1]; SK-MEL-2 cells (wild type BRAF), I3C) | sensitivity to anti-proliferative effects ([2]; 200 μM I3C, 72 hours, BRAF-V600E) | proliferative arrest ([2]; 200 μM I3C, submaximal 24 hours, empty vector transfected or untransfected cells) [%] | sensitivity to anti-proliferative effects ([3]; 200 μM I3C, 72 hours, wild type BRAF) | tumor growth ([4]; I3C 200 mg/kg body weight injected daily, four-week course, vs DMSO vehicle) | MITF-M promoter activity (−333/+120 luciferase reporter, WT) ([5]; 200 μM I3C)
1 | OCc1cn(Cc2ccccc2)c2ccccc12 [1-benzyl I3C, 1-benzyl indole-3-carbinol] | significant downregulation of MITF-M | significant inhibitory effect on MITF-M protein levels | 10-20 fold | 10 to 20 | > 10 | significantly greater antiproliferation than I3C | showed antiproliferation | strongly attenuated tumor growth | significantly smaller than the vehicle control | Luciferase activity was significantly abrogated | – | – | – | – | – | – | – | –
2 | OCc1c[nH]c2ccccc12 [I3C, indole-3-carbinol] | – | – | – | 200 to 300 | – | – | ineffective | – | – | – | strongly down-regulated MITF-M levels | down regulated | expressed high levels of MITF-M protein at all concentrations of I3C; also recorded: no downregulation of MITF-M levels | Most sensitive | 60 | significantly less sensitive | strongly inhibited tumor growth | strongly down regulated MITF-M promoter activity
